What all share (assay type): cell-based
One assay has as its target PI3K-α (Homo sapiens, UniProt P42336). The experiment in a line: Assay c): PI3K cellular potency (phospho-Akt T308 ELISA in BT474 cells). The conditions noted are these: for IC50: BT474 cells, phospho-Akt T308, 2 h; Table 2; read-out: Assay c) PI3Kα Cell IC50; for Assay c) PI3Ka Cell IC50: BT474 cells, phospho-Akt T308, 2 h, Table 3 comparative data. From the text:
This assay was used to measure PI3K-α inhibition in cells. PDK1 was identified as the upstream activation loop kinase of protein kinase B (Akt1), which is essential for the activation of PKB. Activation of the lipid kinase phosphoinositide 3 kinase (PI3K) is critical for the activation of PKB by PDK1.
Following ligand stimulation of receptor tyrosine kinases, PI3K is activated, which converts PIP2 to PIP3, which is bound by the PH domain of PDK1 resulting in recruitment of PDK1 to the plasma membrane where it phosphorylates AKT at Thr308 in the activation loop.
The aim of this cell-based mode of action assay is to identify compounds that inhibit PDK activity or recruitment of PDK1 to membrane by inhibiting PI3K activity. Phosphorylation of phospho-Akt (T308) in BT474c cells following treatment with compounds for 2 h is a direct measure of PDK1 and indirect measure of PI3K activity.
BT474 cells (human breast ductal carcinoma, ATCC HTB-20) were seeded into black 384 well plates (Costar, #3712) at a density of 5600 cells/well in DMEM containing 10% FBS and 1% glutamine and allowed to adhere overnight.
The following morning compounds in 100% DMSO were added to assay plates by acoustic dispensing. After a 2 h incubation at 37° C. and 5% CO2, the medium was aspirated and the cells were lysed with a buffer containing 25 mM Tris, 3 mM EDTA, 3 mM EGTA, 50 mM sodium fluoride, 2 mM Sodium orthovanadate, 0.27M sucrose, 10 mM β-glycerophosphate, 5 mM sodium pyrophosphate, 0.5% Triton X-100 and complete protease inhibitor cocktail tablets (Roche #04 693 116 001, used 1 tab per 50 ml lysis buffer).
After 20 minutes, the cell lysates were transferred into ELISA plates (Greiner #781077) which had been pre-coated with an anti total-AKT antibody in PBS buffer and non-specific binding was blocked with 1% BSA in PBS containing 0.05% Tween 20. Plates were incubated over night at 4° C. The next day the plates were washed with PBS buffer containing 0.05% Tween 20 and further incubated with a mouse monoclonal anti-phospho AKT T308 for 2 h. Plates were washed again as above before addition of a horse anti-mouse-HRP conjugated secondary antibody. Following a 2 h incubation at r.t., plates were washed and QuantaBlu substrate working solution (Thermo Scientific #15169, prepared according to provider's instructions) was added to each well. The developed fluorescent product was stopped after 60 minutes by addition of Stop solution to the wells. Plates were read using a Tecan Safire plate reader using 325 nm excitation and 420 nm emission wavelengths respectively. Except where specified, reagents contained in the Path Scan Phospho AKT (Thr308) sandwich ELISA kit from Cell Signalling (#7144) were used in this ELISA assay.

The target in another assay is T1, ATR kinase (Homo sapiens, UniProt Q13535).
T1 construct: endogenous in cells; host or cells: HT29 cells (ECACC #85061109)
In words: Assay b): ATR cellular potency (pChk1 Ser345 in HT29 cells after 4NQO). The procedure, abridged: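 HT29 cells were preincubated with compound for 1 h at 37 °C, 5% CO2, then stimulated with 4NQO for a further 1 h; wells without 4NQO served as the null control. Cells permeabilised with 0.1% Triton X-100. Chk1 Ser345 phosphorylation imaged on ArrayScan VTI at 10× objective.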

The target of the next assay is T2, ATM kinase (Homo sapiens, UniProt Q13315).
T2 construct: endogenous in cells; host or cells: HT29 cells (ECACC #85061109)
In words: Assay a): ATM cellular potency (pATM Ser1981 in irradiated HT29 cells). The procedure, abridged:
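HT29 cells pretreated with compound for 1 h at 37° C, X-ray irradiated (~600 cGy), then incubated 1 h more. Cells fixed, Triton-permeabilised and immunostained for pATM Ser1981; fluorescence quantified by ArrayScan high-content imaging.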

A further assay has as its target T3, mTOR (Homo sapiens, UniProt P42345).
T3 construct: phosphorylation of the Akt protein at Ser473 (AKT lies downstream of PI3Kα in the signal transduction pathway) in the MDA-MB-468 cells; endogenous in cells; host or cells: MDA-MB-468 cells (ATCC HTB 132)
In words: Assay d): mTOR cellular potency (phospho-AKT Ser473 in MDA-MB-468 cells). On the procedure: This assay was used to measure mTOR inhibition in cells. The aim of the phospho-AKT cell based mechanism of action assay using the Acumen Explorer is to identify inhibitors of either PI3Kα or mTOR-Rictor (Rapamycin insensitive companion of mTOR). This is measured by any decrease in the phosphorylation of the Akt protein at Ser473 (AKT lies downstream of PI3Kα in the signal transduction pathway) in the MDA-MB-468 cells following treatment with compound.
MDA-MB-468 cells (human breast adenocarcinoma #ATCC HTB 132) were seeded at 1500 cells/well in 40 μl of DMEM containing 10% FBS and 1% glutamine into Greiner 384 well black flat-bottomed plates. Cell plates were incubated for 18 h in a 37° C. incubator before dosing with compounds of Formula (I) in 100% DMSO using acoustic dispensing. Compounds were dosed in a 12 point concentration range into a randomised plate map. Control wells were generated either by dosing of 100% DMSO (max signal) or addition of a reference compound (a PI3K-βinhibitor) that completely eliminated the pAKT signal (min control). Plates were incubated at 37° C. for 2 h; cells were then fixed by the addition of 10 μl of a 3.7% formaldehyde solution. After 30 minutes the plates were washed with PBS using a Tecan PW384 plate washer. Wells were blocked and cells permeabilised with the addition of 40 μl of PBS containing 0.5% Tween20 and 1% Marvel™ (dried milk powder) and incubated for 60 minutes at r.t. The plates were washed with PBS containing 0.5% (v/v) Tween20 and 20 μl rabbit anti-phospho AKT Ser473 (Cell Signalling Technologies, #3787) in same PBS-Tween+1% Marvel™ was added and incubated overnight at 4° C.
Plates were washed 3 times with PBS+0.05% Tween 20 using a Tecan PW384. 20 μl of secondary antibody Alexa Fluor 488 anti-Rabbit (Molecular Probes, #A11008) diluted in PBS+0.05% Tween20 containing 1% Marvel™ was added to each well and incubated for 1 h at r.t. Plates were washed three times as before then 20 μl PBS added to each well and plates sealed with a black plate sealer.
The plates were read on an Acumen plate reader as soon as possible, measuring green fluorescence after excitation with 488 nm laser. Using this system IC50 values were generated and quality of plates was determined by control wells. Reference compounds were run each time to monitor assay performance.

[1] abbreviates: HT29 cells, 4NQO, pChk1 Ser345; Table 2; read-out: Assay b) ATR Cell IC50.
The mark [2] stands for this setting: HT29 cells, X-ray irradiation, pATM Ser1981; Table 2; read-out: Assay a) ATM Cell IC50.
[3] abbreviates: MDA-MB-468 cells, phospho-AKT Ser473, 2 h; Table 3 comparative data; read-out: Assay d) mTOR Cell IC50.
The mark [4] stands for this setting: HT29 cells, 4NQO, pChk1 Ser345; Table 3 comparative data; read-out: Assay b) ATR Cell IC50.
The mark [5] stands for this setting: HT29 cells, X-ray irradiation, pATM Ser1981; Table 3 comparative data; read-out: Assay a) ATM Cell IC50.
Setting [6] is: MDA-MB-468 cells, phospho-AKT Ser473, 2 h; Table 2; read-out: Assay d) mTOR Cell IC50.

For orientation: IC50 means the concentration at which inhibition is half-maximal.

Like-named read-outs stand apart in the source and are kept apart here.

Sequence of PI3K-α (P42336 whole entry): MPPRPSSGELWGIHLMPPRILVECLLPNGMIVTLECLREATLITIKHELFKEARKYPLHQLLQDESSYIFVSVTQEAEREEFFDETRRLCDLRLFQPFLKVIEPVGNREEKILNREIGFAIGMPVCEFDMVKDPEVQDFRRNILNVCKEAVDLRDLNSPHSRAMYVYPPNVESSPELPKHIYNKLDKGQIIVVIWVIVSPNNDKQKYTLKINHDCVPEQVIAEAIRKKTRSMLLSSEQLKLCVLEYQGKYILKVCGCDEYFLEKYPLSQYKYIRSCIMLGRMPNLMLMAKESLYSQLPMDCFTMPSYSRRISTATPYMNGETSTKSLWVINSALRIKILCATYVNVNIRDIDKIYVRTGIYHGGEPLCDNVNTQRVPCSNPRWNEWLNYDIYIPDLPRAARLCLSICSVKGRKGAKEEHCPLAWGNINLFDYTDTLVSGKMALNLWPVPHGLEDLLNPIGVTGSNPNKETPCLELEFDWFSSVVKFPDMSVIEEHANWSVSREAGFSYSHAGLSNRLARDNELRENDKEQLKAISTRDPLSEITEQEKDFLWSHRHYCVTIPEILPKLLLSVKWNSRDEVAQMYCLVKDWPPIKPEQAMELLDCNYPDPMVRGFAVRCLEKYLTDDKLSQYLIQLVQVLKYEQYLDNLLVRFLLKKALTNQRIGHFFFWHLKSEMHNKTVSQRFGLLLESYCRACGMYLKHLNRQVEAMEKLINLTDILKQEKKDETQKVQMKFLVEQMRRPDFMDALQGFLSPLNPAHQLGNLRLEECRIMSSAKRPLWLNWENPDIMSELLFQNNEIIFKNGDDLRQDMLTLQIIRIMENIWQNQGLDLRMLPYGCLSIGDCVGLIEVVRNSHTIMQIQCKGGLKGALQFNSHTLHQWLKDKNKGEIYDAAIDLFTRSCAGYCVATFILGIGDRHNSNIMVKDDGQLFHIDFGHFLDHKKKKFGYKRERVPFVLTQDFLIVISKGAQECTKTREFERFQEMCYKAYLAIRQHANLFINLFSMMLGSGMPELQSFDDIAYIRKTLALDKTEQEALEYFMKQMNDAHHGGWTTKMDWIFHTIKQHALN
Sequence of PI3K-α (P27986 2-724, further chain): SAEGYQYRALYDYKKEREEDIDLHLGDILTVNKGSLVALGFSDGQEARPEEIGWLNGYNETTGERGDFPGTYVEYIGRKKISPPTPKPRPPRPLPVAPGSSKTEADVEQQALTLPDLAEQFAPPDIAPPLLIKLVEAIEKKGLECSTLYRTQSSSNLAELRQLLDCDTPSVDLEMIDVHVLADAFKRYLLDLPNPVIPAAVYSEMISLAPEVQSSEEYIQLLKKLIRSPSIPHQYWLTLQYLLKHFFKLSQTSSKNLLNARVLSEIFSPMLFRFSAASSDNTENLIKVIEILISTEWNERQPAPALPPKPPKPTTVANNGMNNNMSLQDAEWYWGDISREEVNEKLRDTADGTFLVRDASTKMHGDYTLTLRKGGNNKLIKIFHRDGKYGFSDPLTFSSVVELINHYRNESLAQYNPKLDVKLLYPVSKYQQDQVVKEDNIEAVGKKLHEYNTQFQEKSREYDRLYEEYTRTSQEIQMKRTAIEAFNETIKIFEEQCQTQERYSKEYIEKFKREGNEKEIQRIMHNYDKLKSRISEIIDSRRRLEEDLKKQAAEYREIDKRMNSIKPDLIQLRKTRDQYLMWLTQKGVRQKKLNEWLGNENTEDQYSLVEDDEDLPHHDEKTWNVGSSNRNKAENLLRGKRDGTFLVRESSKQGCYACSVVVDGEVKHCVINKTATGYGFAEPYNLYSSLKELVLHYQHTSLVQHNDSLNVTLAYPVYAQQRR
T2 sequence (Q13315 whole entry): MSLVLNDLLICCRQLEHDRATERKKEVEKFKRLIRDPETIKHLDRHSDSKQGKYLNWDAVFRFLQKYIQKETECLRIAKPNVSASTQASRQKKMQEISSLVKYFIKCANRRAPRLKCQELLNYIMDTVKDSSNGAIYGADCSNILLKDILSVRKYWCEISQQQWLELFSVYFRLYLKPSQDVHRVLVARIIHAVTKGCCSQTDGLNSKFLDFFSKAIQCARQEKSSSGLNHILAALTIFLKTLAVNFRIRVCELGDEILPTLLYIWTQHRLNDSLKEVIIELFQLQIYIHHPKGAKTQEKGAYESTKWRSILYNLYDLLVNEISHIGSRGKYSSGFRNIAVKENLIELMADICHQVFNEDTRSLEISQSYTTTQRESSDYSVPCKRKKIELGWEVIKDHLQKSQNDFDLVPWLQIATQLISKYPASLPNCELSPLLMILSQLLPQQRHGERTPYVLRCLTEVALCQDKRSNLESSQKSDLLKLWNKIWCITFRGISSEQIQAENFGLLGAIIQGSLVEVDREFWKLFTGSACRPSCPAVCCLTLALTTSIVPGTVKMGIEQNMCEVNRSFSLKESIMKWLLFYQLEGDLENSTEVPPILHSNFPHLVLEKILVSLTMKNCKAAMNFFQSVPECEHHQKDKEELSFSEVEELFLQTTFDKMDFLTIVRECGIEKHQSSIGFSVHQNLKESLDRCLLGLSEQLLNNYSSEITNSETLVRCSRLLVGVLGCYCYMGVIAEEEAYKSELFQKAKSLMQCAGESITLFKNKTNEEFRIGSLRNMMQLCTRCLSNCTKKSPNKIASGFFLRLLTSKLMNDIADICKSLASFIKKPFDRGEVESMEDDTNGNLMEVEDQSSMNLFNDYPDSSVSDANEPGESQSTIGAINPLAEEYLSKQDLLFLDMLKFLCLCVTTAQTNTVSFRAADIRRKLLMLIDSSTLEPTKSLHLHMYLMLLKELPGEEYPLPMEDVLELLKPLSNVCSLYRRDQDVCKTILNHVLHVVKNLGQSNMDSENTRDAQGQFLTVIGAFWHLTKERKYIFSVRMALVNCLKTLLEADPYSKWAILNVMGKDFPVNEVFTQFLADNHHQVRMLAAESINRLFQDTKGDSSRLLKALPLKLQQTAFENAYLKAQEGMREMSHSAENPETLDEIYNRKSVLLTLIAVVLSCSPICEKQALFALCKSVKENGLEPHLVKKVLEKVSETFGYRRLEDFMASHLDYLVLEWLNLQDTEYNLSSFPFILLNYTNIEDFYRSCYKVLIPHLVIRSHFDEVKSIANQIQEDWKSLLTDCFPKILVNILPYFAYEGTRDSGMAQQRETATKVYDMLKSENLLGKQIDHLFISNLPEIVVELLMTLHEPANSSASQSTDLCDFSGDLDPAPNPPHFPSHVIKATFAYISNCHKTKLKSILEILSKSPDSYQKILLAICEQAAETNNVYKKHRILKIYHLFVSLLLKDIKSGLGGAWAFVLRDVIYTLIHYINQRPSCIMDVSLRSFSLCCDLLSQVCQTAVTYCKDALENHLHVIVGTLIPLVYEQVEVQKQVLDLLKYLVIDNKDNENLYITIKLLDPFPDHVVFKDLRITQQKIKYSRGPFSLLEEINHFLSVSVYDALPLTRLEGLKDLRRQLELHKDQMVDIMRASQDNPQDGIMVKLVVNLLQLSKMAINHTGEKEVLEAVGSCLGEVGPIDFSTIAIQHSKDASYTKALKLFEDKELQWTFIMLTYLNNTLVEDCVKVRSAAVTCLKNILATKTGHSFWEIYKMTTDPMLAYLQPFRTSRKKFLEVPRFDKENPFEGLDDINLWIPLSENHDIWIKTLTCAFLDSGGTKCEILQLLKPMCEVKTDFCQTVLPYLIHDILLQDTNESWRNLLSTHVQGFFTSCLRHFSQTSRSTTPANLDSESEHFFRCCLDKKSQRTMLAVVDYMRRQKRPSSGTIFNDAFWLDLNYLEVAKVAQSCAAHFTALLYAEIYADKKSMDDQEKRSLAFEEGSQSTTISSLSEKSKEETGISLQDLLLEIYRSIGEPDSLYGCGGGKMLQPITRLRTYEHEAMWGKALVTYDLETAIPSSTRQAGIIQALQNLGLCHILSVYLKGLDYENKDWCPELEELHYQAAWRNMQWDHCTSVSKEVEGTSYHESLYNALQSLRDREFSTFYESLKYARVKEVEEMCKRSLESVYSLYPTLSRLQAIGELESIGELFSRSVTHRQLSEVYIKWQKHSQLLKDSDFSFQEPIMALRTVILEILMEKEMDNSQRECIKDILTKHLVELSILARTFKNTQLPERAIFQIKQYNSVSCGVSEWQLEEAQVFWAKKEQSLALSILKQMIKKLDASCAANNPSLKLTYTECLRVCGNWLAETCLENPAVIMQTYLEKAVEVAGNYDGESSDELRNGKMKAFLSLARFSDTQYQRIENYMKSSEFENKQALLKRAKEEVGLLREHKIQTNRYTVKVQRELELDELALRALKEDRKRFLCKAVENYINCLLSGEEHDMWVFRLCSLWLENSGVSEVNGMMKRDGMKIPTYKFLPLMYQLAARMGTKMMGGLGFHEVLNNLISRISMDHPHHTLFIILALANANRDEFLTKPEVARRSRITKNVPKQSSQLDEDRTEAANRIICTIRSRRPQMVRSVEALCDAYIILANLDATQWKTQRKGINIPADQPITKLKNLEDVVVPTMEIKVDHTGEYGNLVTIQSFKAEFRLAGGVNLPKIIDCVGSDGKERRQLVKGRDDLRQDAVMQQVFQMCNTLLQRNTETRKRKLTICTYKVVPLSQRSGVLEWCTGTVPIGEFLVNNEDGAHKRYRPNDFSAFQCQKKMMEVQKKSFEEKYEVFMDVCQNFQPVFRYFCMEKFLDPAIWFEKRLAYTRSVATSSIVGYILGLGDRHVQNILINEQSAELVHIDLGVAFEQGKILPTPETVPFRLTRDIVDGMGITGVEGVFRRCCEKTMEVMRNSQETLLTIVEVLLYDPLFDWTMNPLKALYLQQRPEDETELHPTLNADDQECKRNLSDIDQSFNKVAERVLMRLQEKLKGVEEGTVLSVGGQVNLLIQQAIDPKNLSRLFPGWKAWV

Take `CC(C)n1c(=O)n(C)c2cnc3ccc(-c4ccc(OCCN(C)C)cc4)cc3c21` [Example 5, 8-[4-[2-(Dimethylamino)ethoxy]phenyl]-1-isopropyl-3-methyl-imidazo[4,5-c]quinolin-2-one]: the IC50 on PI3K-α is greater than 26900 nM; on ATR kinase (setting [1]), greater than 30000 nM; on ATM kinase (setting [2]) it was 14.8 nM.
As for `COc1ncc(-c2ccc3ncc4c(c3c2)n(C2CC2)c(=O)n4C)cc1NS(=O)(=O)C1CC1` [CN102399218A Compound 114, reference compound], the “Assay c) PI3Ka Cell IC50” value at PI3K-α was found to be 13.1 nM. The values for the IC50 on mTOR (setting [3]), on ATR kinase (setting [4]) and on ATM kinase (setting [5]) were 46.9 nM, 68.6 nM and 74.1 nM, respectively.
The matching figures for `COc1ccc(-c2ccc3ncc4c(c3c2)n(C2CCN(C(C)=O)CC2)c(=O)n4C)cn1` [CN102372711A Compound 5, reference compound]: 153 nM, 113 nM, 64.4 nM and 26.5 nM.
Turning to `CO[C@H]1C[C@@H](n2c(=O)n(C)c3cnc4cc(F)c(-c5ccc(OCCCN(C)C)cc5)cc4c32)C1` [Example 12, 8-[4-[3-(dimethylamino)propoxy]phenyl]-7-fluoro-1-(cis3-methoxycyclobutyl)-3-methyl-imidazo[4,5-c]quinolin-2-one], the IC50 was 20400 nM at PI3K-α, 5560 nM at mTOR (setting [6]), greater than 30000 nM at ATR kinase (setting [1]) and 1.88 nM on ATM kinase (setting [2]).
For the molecule `Cn1c(=O)n(C2CNC2)c2c3cc(-c4cnc5[nH]ccc5c4)ccc3ncc21` [CN102399218A Compound 61, reference compound], at PI3K-α, the “Assay c) PI3Ka Cell IC50” value came out at 1730 nM. For the same molecule, the IC50 at mTOR (setting [3]) worked out at 177 nM; at ATR kinase (setting [4]) it was 1480 nM; on ATM kinase (setting [5]) it was 3460 nM.
Consider `CN(C)CCCOc1ccc(-c2ccc3ncc4c(c3c2)n([C@@H]2CCCOC2)c(=O)n4C)cc1` [Example 8, 8-[4-[3-(dimethylamino)propoxy]phenyl]-3-methyl-1-[(3R)-tetrahydropyran-3-yl]imidazo[4,5-c]quinolin-2-one], for which the figures for the IC50 on PI3K-α, at mTOR (setting [6]) and on ATR kinase (setting [1]) were 311 nM, 1420 nM and greater than 30000 nM, respectively.
Consider `CN(C)CCCOc1ccc(-c2ccc3ncc4c(c3c2)n([C@H]2CCCOC2)c(=O)n4C)cc1` [Example 9, 8-[4-[3-(dimethylamino)propoxy]phenyl]-3-methyl-1-[(3S)-tetrahydropyran-3-yl]imidazo[4,5-c]quinolin-2-one], for which the figures for the IC50 at PI3K-α and at ATR kinase (setting [1]) were 15200 nM and greater than 30000 nM, respectively.
Take `CO[C@H]1CC[C@H](n2c(=O)n(C)c3cnc4ccc(-c5ccc(OCCCN6CCCC6)cc5)cc4c32)C1` (single isomer, unassigned) [Example 19, 1-[trans-3-methoxycyclopentyl]-3-methyl-8-[4-(3-pyrrolidin-1-ylpropoxy)phenyl]imidazo[4,5-c]quinolin-2-one]: the IC50 on mTOR (setting [6]) is 634 nM; at ATR kinase (setting [1]) it was 18000 nM; on ATM kinase (setting [2]) it was 0.29 nM.
As to `Cn1c(=O)n(C2CCOCC2)c2c3cc(-c4cnn(CCCO)c4)ccc3ncc21` [CN102399218A Compound 60, reference compound], the results for the IC50 at mTOR (setting [3]), at ATR kinase (setting [4]) and at ATM kinase (setting [5]) were 2310 nM, greater than 77.1 nM and 1760 nM, respectively.
Turning to `CN(C)CCOc1ccc(-c2cc3c(cc2F)ncc2c3n(C3CCOCC3)c(=O)n2C)cc1` [Example 56, 8-[4-[2-(Dimethylamino)ethoxy]phenyl]-7-fluoro-3-methyl-1-tetrahydropyran-4-yl-imidazo[4,5-c]quinolin-2-one], the results for the IC50 at mTOR (setting [6]), at ATR kinase (setting [1]) and on ATM kinase (setting [2]) were 29200 nM, 9850 nM and 53.1 nM, respectively.
For `COc1ccc(-c2ccc3ncc4c(c3c2)n(C2CCNCC2)c(=O)n4C)cn1` [CN102372711A Compound 1, reference compound], the “Assay c) PI3Ka Cell IC50” value on PI3K-α was determined as 188 nM. For the same molecule, the IC50 at mTOR (setting [3]) was determined as 237 nM; at ATR kinase (setting [4]) it was 281 nM.
With `Cn1c(=O)n(C2CCOCC2)c2c3cc(-c4cnc(N)nc4)ccc3ncc21` [CN102399218A Compound 94, reference compound], the “Assay c) PI3Ka Cell IC50” value at PI3K-α is 80.4 nM. Moreover, the IC50 at mTOR (setting [3]) turned out to be 41.4 nM; on ATR kinase (setting [4]) it was 12.9 nM; on ATM kinase (setting [5]), 494 nM.
Regarding `CO[C@H]1C[C@@H](n2c(=O)n(C)c3cnc4ccc(-c5ccc(OCCCN(C)C)cc5)cc4c32)C1` [Example 11, 8-[4-[3-(dimethylamino)propoxy]phenyl]-1-(cis-3-methoxycyclobutyl)-3-methyl-imidazo[4,5-c]quinolin-2-one], the results for the IC50 on mTOR (setting [6]), on ATR kinase (setting [1]) and at ATM kinase (setting [2]) were 6360 nM, greater than 30000 nM and 0.647 nM, respectively.
On to `CN(C)CCCOc1ccc(-c2cc3c(cc2F)ncc2c3n(C3CCOCC3)c(=O)n2C)cc1` [Example 45, 8-[4-[3-(Dimethylamino)propoxy]phenyl]-7-fluoro-3-methyl-1-tetrahydropyran-4-yl-imidazo[4,5-c]quinolin-2-one], for which the concentration for half-maximal inhibition (IC50) is 8650 nM on mTOR (setting [6]), 20000 nM on ATR kinase (setting [1]) and 3.95 nM at ATM kinase (setting [2]).
The corresponding values for `CO[C@H]1CC[C@@H](n2c(=O)n(C)c3cnc4ccc(-c5ccc(OCCCN(C)C)cc5)cc4c32)CC1` [Example 25, 8-[4-[3-(dimethylamino)propoxy]phenyl]-1-(cis-4-methoxycyclohexyl)-3-methyl-imidazo[4,5-c]quinolin-2-one] are 879 nM, 21000 nM and 0.089 nM.

The record behind these values is patent US20180318287A1, “Imidazo[4,5-c]quinolin-2-one Compounds and Their Use in Treating Cancer” (ASTRAZENECA AB, priority 2015, published 2018).
